Experimental data as given in patent US20210346385A1, “TASTE-MASKED DOSAGE FORMS” (MSB Holdings, Inc, priority 2018, published 2021).

Assay: Dissolving time of the troche
Type: physicochemical
[1] = ingredient in troche of Example 4f
[2] = ingredient in troche of Example 4i
[3] = ingredient in troche of Example 4j
[4] = ingredient in troche of Example 4k
[5] = ingredient in troche of Example 4l
[6] = ingredient in troche of Example 4m
[7] = ingredient in troche of Example 4n
[8] = ingredient in troche of Example 4o (ButterCream)
[9] = ingredient in troche of Example 4o (Vanilla, Marshmallow)
[10] = ingredient in troche of Example 4p
[11] = ingredient in troche of Example 4c, troche with silica, acacia and Winterfresh
[12] = ingredient in troche of Example 4d, troche with Alpha agent, silica, acacia, cherry
[13] = ingredient in troche of Example 42
[14] = ingredient in troche of Example 4h

Dissolving time: remark for the single ingredient [1]	Dissolving time: remark for the single ingredient [2]	Dissolving time: remark for the single ingredient [3]	Dissolving time: remark for the single ingredient [4]	Dissolving time: remark for the single ingredient [5]	Dissolving time: remark for the single ingredient [6]	Dissolving time: remark for the single ingredient [7]	Dissolving time: remark for the single ingredient [8]	Dissolving time: remark for the single ingredient [9]	Dissolving time: remark for the single ingredient [10]	Dissolving time: remark for the single ingredient (ingredient in troche of Example 4b)	Dissolving time: remark for the single ingredient [11]	Dissolving time: remark for the single ingredient [12]	Dissolving time: remark for the single ingredient [13]	Dissolving time: remark for the single ingredient [14]	Dissolving time: remark for the single ingredient (ingredient in troche of Example 4e)	Compound
No effect	No effect	No effect	No effect	No effect	No effect	No effect	No effect	No effect	No effect							CC1=CC(=O)NS(=O)(=O)O1 [Acesulfame]
										Did Not Help	Did Not Help	No effect				Sugar
		No effect	No effect	No effect	No effect	No effect	No effect	No effect	No effect				No effect	No effect		C=C1C[C@@]23CC[C@H]4[C@@](C)(CCC[C@@]4(C)C(=O)O)[C@@H]2CC[C@]1(O)C3 [Steviol]
No effect	No effect	No effect	No effect	No effect	No effect	No effect	No effect	No effect	No effect		No effect	No effect	No effect	No effect	No effect	CCCc1nn(C)c2c(=O)[nH]c(-c3cc(S(=O)(=O)N4CCN(C)CC4)ccc3OCC)nc12 [Sildenafil, reference compound]
